The values below come from ChEMBL document CHEMBL1127660, “Isolation, structural determination, and biological activity of 6 alpha-hydroxytaxol, the principal human metabolite of taxol” (J Med Chem, 1994).

Assay [1] deals with U-937. Description: The compound was tested for inhibition concentration against U-937 cell line. Conditions: Homo sapiens. It counts as functional, cell-based.
Assay [2] concerns MOLT-4. Description: The compound was tested for inhibition concentration against MOLT-4 cell line. In kind it is functional, cell-based. The note with it: Homo sapiens.

SMILES strings stand for the structures. pIC50: −log10 of the molar value.

In general, pIC50 refers to −log10 of the IC50, conventionally taken in molar units. Low readings indicate a high IC50, high ones a low IC50. For `CC(=O)O[C@H]1C(=O)[C@@]2(C)[C@H]([C@H](OC(=O)c3ccccc3)[C@]3(O)C[C@H](OC(=O)[C@H](O)[C@@H](NC(=O)c4ccccc4)c4ccccc4)C(C)=C1C3(C)C)[C@]1(OC(C)=O)CO[C@@H]1C[C@@H]2O` [PACLITAXEL], the values for the pIC50 in assay [1] and in assay [2] were 9.00 and 8.80, respectively.
